# Data: ChEMBL document CHEMBL1140804, “Design, synthesis and evaluation of trifluoromethane sulfonamide derivatives as new potent and selective peroxisome proliferator-activated receptor alpha agonists” (Bioorg Med Chem Lett, 2008)
# What was measured:
# [1] = target: T1, Peroxisome proliferator-activated receptor gamma (Mus musculus, UniProt P37238)
# T1 sequence (P37238 whole entry): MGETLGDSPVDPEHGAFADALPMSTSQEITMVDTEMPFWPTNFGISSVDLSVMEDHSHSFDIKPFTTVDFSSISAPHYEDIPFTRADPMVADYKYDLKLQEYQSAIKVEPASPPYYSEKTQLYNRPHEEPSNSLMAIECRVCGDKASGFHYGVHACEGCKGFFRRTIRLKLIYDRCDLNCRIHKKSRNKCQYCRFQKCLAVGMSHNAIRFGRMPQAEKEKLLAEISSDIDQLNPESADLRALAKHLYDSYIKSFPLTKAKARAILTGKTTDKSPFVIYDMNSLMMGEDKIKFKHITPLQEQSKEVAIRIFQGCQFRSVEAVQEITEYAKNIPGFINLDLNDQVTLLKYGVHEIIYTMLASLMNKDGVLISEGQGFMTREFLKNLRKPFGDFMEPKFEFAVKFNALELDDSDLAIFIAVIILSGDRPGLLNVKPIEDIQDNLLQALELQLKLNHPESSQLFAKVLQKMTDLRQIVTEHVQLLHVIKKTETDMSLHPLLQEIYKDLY
# Description: Agonist activity at mouse PPARgamma assessed as receptor activation by cell based assay
# [2] = target: T2, Peroxisome proliferator-activated receptor delta (Mus musculus, UniProt P35396)
# T2 sequence (P35396 whole entry): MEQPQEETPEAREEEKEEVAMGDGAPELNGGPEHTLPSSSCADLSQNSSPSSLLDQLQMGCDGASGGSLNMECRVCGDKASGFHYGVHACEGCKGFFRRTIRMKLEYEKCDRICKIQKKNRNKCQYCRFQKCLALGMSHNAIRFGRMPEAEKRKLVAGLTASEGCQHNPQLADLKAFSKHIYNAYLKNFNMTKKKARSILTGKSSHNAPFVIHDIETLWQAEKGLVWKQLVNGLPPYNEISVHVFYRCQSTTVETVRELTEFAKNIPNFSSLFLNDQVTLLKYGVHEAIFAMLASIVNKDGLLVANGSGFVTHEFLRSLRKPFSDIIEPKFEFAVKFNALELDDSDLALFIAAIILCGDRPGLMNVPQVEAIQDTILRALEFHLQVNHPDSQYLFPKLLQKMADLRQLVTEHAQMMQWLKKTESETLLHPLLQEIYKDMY
# Description: Agonist activity at mouse PPARdelta assessed as receptor activation by cell based assay
# [3] = target: T3, Peroxisome proliferator-activated receptor delta (Homo sapiens, UniProt Q03181)
# T3 sequence (Q03181 whole entry): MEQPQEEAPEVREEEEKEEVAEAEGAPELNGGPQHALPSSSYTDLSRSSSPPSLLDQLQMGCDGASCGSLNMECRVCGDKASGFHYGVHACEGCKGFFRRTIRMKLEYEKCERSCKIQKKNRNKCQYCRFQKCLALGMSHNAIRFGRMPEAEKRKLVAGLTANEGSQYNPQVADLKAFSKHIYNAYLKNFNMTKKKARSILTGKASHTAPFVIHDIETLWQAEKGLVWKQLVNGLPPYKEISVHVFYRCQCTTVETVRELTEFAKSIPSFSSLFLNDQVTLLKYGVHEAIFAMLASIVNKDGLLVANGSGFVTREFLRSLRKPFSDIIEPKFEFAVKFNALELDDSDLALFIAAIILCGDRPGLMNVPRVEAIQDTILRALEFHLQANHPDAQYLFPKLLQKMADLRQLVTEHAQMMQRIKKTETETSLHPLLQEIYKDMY
# Description: Agonist activity at human PPARdelta assessed as receptor activation by cell based assay
# [4] = target: T4, Peroxisome proliferator-activated receptor alpha (Homo sapiens, UniProt Q07869)
# T4 sequence (Q07869 whole entry): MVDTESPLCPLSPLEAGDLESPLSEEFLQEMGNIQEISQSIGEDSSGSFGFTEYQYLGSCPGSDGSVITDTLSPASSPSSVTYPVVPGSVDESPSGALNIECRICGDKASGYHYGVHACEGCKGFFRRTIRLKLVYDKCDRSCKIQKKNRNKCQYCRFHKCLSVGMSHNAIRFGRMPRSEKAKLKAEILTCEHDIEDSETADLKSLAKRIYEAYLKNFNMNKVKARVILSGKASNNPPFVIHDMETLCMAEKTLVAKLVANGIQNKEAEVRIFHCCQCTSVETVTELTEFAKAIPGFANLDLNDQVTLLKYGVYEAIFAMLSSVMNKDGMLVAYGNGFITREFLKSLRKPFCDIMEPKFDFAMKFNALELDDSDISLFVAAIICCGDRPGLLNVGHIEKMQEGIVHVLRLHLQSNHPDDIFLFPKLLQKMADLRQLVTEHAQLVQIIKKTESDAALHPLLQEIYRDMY
# Description: Agonist activity at human PPARalpha assessed as receptor activation by cell based assay
# [5] = target: T5, Peroxisome proliferator-activated receptor alpha (Mus musculus, UniProt P23204)
# T5 sequence (P23204 whole entry): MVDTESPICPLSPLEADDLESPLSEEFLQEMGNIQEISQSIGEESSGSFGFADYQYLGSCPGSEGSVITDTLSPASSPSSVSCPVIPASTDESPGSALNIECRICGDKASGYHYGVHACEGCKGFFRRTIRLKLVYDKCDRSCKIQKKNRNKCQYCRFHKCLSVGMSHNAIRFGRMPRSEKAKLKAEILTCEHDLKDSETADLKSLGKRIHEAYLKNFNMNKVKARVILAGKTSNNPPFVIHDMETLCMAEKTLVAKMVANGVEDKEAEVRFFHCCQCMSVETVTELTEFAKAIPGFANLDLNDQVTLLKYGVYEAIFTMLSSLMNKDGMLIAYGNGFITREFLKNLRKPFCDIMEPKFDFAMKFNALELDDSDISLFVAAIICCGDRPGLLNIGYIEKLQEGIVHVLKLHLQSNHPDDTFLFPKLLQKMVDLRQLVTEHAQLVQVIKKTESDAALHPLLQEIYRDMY
# Description: (§1) Agonist activity at mouse PPARalpha assessed as receptor activation by cell based assay
# [6] = target: T6, Peroxisome proliferator-activated receptor gamma (Homo sapiens, UniProt P37231)
# T6 sequence (P37231 whole entry): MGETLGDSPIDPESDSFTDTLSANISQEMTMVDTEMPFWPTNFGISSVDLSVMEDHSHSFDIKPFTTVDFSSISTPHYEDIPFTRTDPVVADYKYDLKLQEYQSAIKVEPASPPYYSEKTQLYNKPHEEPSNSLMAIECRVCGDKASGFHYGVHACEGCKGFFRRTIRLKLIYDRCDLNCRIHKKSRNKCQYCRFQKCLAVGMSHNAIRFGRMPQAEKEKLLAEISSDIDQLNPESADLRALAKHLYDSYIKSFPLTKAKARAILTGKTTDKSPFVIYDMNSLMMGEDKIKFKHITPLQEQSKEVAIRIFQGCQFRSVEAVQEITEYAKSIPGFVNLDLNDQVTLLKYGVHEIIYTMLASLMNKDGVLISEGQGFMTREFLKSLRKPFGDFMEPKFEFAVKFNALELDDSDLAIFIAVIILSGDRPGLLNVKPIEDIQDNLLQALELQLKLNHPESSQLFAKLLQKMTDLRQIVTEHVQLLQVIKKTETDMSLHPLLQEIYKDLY
# Description: Agonist activity at human PPARgamma assessed as receptor activation by cell based assay
# [7] = target: T7, Peroxisome proliferator-activated receptor alpha (Mus musculus) (UniProt P23204)
# T7 sequence (whole entry): T5 sequence (P23204 whole entry)
# Description: as §1
Compound,EC50 [1] [nM],EC50 [2] [nM],EC50 [3] [nM],EC50 [4] [nM],EC50 [5] [nM],EC50 [6] [nM],Activity [7] [%]
Cc1nc(-c2ccc(C(F)(F)F)cc2)sc1C(=O)NCc1ccc(NS(=O)(=O)C(C)C)cc1,> 10000,> 10000,> 10000,50,> 10000,> 10000,
COc1ccc2sc(C(=O)NCc3ccc(NS(=O)(=O)C(F)(F)F)cc3)cc2c1,,,,80,130,,132
CC(C)(Oc1ccc(CNC(=O)c2ccc(-c3ccc(C#N)cc3)cc2)cc1)C(=O)O,,,,1000,> 25000,,
CC(C)(Oc1ccc(CNC(=O)Cc2ccc(-c3ccc(Cl)cc3)cc2)cc1)C(=O)O,,,,2800,> 25000,,
Cc1csc(-c2ccc(C(=O)NCc3ccc(NS(=O)(=O)C(F)(F)F)cc3)cc2)n1,,,,60,80,,96
Cc1ccc(S(=O)(=O)Nc2ccc(CNC(=O)c3sc(-c4ccc(C(F)(F)F)cc4)nc3C)cc2)cc1,> 10000,> 10000,> 10000,1000,> 10000,> 10000,
Cc1nc(-c2ccc(C(F)(F)F)cc2)sc1C(=O)NCc1ccc(-c2c(O)c(=O)c2=O)cc1,> 10000,> 10000,> 10000,> 10000,> 10000,> 10000,
Cc1nc(-c2ccc(C(F)(F)F)cc2)sc1C(=O)NCc1ccc(NS(C)(=O)=O)cc1,> 10000,> 10000,> 10000,60,800,> 10000,78
Cc1nc(-c2ccc(C(F)(F)F)cc2)sc1C(=O)NCc1ccc(OC(C)(C)C(=O)NS(=O)(=O)C(F)(F)F)cc1,> 10000,> 10000,> 10000,> 10000,> 10000,> 10000,
Cc1nc(-c2ccc(C(F)(F)F)cc2)sc1C(=O)NCc1ccc(NS(=O)(=O)C(F)(F)F)cc1,600,300,400,0.3,2,500,98
Cc1nc(-c2ccc(C(F)(F)F)cc2)sc1C(=O)NCc1ccc(CNS(=O)(=O)C(F)(F)F)cc1,> 10000,> 10000,> 10000,80,> 10000,> 10000,
COCc1nc(-c2ccc(C(=O)NCc3ccc(OC(C)(C)C(=O)O)cc3)cc2)no1,,,,3000,> 25000,,
Cc1csc(-c2ccc(C(=O)NCc3ccc(OC(C)(C)C(=O)O)cc3)cc2)n1,,,,5000,> 25000,,
CC(C)(Oc1ccc(CNC(=O)c2ccc(-c3ccc(Cl)cc3)cc2)cc1)C(=O)O,,,,70,1000,,130
CCCCS(=O)(=O)Nc1ccc(CNC(=O)c2sc(-c3ccc(C(F)(F)F)cc3)nc2C)cc1,6700,> 10000,> 10000,320,> 10000,5500,
Cc1nc(-c2ccc(C(F)(F)F)cc2)sc1C(=O)NCc1ccc(NS(=O)(=O)CC(F)(F)F)cc1,300,> 10000,> 10000,3,60,300,74
COc1ccc2sc(C(=O)NCc3ccc(OC(C)(C)C(=O)O)cc3)cc2c1,,,,6000,> 25000,,
N#Cc1ccc(-c2ccc(C(=O)NCc3ccc(NS(=O)(=O)C(F)(F)F)cc3)cc2)cc1,,,,20,200,,152
Cc1nc(-c2ccc(C(F)(F)F)cc2)sc1C(=O)NCc1ccc(OCc2nn[nH]n2)cc1,> 10000,> 10000,> 10000,> 10000,> 10000,> 10000,
Cc1nc(-c2ccc(C(F)(F)F)cc2)sc1C(=O)NCc1ccc(OC(C)(C)C(=O)O)cc1 [GW590735],9700,1700,,,20,9700,103
COCc1nc(-c2ccc(C(=O)NCc3ccc(NS(=O)(=O)C(F)(F)F)cc3)cc2)no1,,,,360,700,,116
Cc1nc(-c2ccc(C(F)(F)F)cc2)sc1C(=O)NCc1ccc(NC(=O)C(F)(F)F)cc1,> 10000,> 10000,> 10000,450,> 10000,> 10000,
O=C(Cc1ccc(-c2ccc(Cl)cc2)cc1)NCc1ccc(NS(=O)(=O)C(F)(F)F)cc1,,,,80,340,,0.34
